Laboratory results from ChEMBL document CHEMBL4177703, “The discovery and optimization of naphthalene-linked P2-P4 Macrocycles as inhibitors of HCV NS3 protease” (Bioorg Med Chem Lett, 2018).

Legend:
[1] = Half life in human liver microsomes in presence of NADPH; format: ADME, microsome
[2] = Cardiotoxicity in Langendorff perfused rabbit heart assessed as change in coronary flow at 10 uM measured over 20 mins by electrocardiography (reference value: 0%); format: toxicity, tissue-based, Oryctolagus cuniculus
[3] = Cardiotoxicity in Langendorff perfused rabbit heart assessed as change in sinus node recovery time at 10 uM measured over 10 mins by electrocardiography (reference value: 0%); format: toxicity, tissue-based, Oryctolagus cuniculus
[4] = Half life in Sprague-Dawley rat at 15 mg/kg, po after 24 hrs; format: ADME, organism-based; settings: in vivo
[5] = Cardiotoxicity in Langendorff perfused rabbit heart assessed as change in sinus node recovery time at 10 uM measured over 30 mins by electrocardiography (reference value: 0%); format: toxicity, tissue-based, Oryctolagus cuniculus; settings: 0.5 h
[6] = Cardiotoxicity in Langendorff perfused rabbit heart assessed as change in heart rate at 10 uM measured over 20 mins by electrocardiography (reference value: 0%); format: toxicity, tissue-based, Oryctolagus cuniculus
[7] = Cardiotoxicity in Langendorff perfused rabbit heart assessed as change in PR interval at 10 uM measured over 20 mins by electrocardiography (reference value: 0%); format: toxicity, tissue-based, Oryctolagus cuniculus
[8] = Cardiotoxicity in Langendorff perfused rabbit heart assessed as change in QT interval at 10 uM measured over 20 mins by electrocardiography (reference value: 0%); format: toxicity, tissue-based, Oryctolagus cuniculus
[9] = Cardiotoxicity in Langendorff perfused rabbit heart assessed as change in coronary flow at 10 uM measured over 10 mins by electrocardiography (reference value: 0%); format: toxicity, tissue-based, Oryctolagus cuniculus
[10] = Cardiotoxicity in Langendorff perfused rabbit heart assessed as change in QT interval at 10 uM measured over 10 mins by electrocardiography (reference value: 0%); format: toxicity, tissue-based, Oryctolagus cuniculus
[11] = Half life in Sprague-Dawley rat at 5 mg/kg, iv after 24 hrs; format: ADME, organism-based; settings: in vivo
[12] = Cardiotoxicity in Langendorff perfused rabbit heart assessed as change in PR interval at 10 uM measured over 30 mins by electrocardiography (reference value: 0%); format: toxicity, tissue-based, Oryctolagus cuniculus; settings: 0.5 h
[13] = Cardiotoxicity in Langendorff perfused rabbit heart assessed as change in QRS interval at 10 uM measured over 20 mins by electrocardiography (reference value: 0%); format: toxicity, tissue-based, Oryctolagus cuniculus
[14] = Cardiotoxicity in Langendorff perfused rabbit heart assessed as change in coronary flow at 10 uM measured over 30 mins by electrocardiography (reference value: 0%); format: toxicity, tissue-based, Oryctolagus cuniculus; settings: 0.5 h
[15] = Cardiotoxicity in Langendorff perfused rabbit heart assessed as change in PR interval at 10 uM measured over 10 mins by electrocardiography (reference value: 0%); format: toxicity, tissue-based, Oryctolagus cuniculus
[16] = Cardiotoxicity in Langendorff perfused rabbit heart assessed as change in QRS interval at 10 uM measured over 10 mins by electrocardiography (reference value: 0%); format: toxicity, tissue-based, Oryctolagus cuniculus
[17] = Cardiotoxicity in Langendorff perfused rabbit heart assessed as change in QRS interval at 10 uM measured over 30 mins by electrocardiography (reference value: 0%); format: toxicity, tissue-based, Oryctolagus cuniculus; settings: 0.5 h
[18] = Cardiotoxicity in Langendorff perfused rabbit heart assessed as change in heart rate at 10 uM measured over 30 mins by electrocardiography (reference value: 0%); format: toxicity, tissue-based, Oryctolagus cuniculus; settings: 0.5 h
[19] = Clearance in Sprague-Dawley rat at 5 mg/kg, iv after 24 hrs; format: ADME, organism-based; settings: in vivo
[20] = Cardiotoxicity in Langendorff perfused rabbit heart assessed as change in sinus node recovery time at 10 uM measured over 20 mins by electrocardiography (reference value: 0%); format: toxicity, tissue-based, Oryctolagus cuniculus
[21] = Cardiotoxicity in Langendorff perfused rabbit heart assessed as change in QT interval at 10 uM measured over 30 mins by electrocardiography (reference value: 0%); format: toxicity, tissue-based, Oryctolagus cuniculus; settings: 0.5 h
[22] = AUC in Sprague-Dawley rat at 15 mg/kg, po after 24 hrs; format: ADME, organism-based; parameters: time < 24 hr, dose 15 mg/kg, route oral; settings: in vivo
[23] = Oral bioavailability in Sprague-Dawley rat at 15 mg/kg after 24 hrs; format: ADME, organism-based; settings: in vivo
[24] = AUC in Sprague-Dawley rat at 5 mg/kg, iv after 24 hrs; format: ADME, organism-based; parameters: dose 5 mg/kg, time < 24 hr, route intravenous; settings: in vivo
[25] = Cardiotoxicity in Langendorff perfused rabbit heart assessed as change in heart rate at 10 uM measured over 10 mins by electrocardiography (reference value: 0%); format: toxicity, tissue-based, Oryctolagus cuniculus
[26] = Clearance in rat at 5 mg/kg, iv or 15 mg/kg, po; format: ADME, organism-based; settings: in vivo
[27] = Oral bioavailability in rat at 15 mg/kg; format: ADME, organism-based; settings: in vivo
[28] = AUC in Sprague-Dawley rat at 5 mg/kg, iv after 6 hrs; format: ADME, organism-based; parameters: time < 6 hr, dose 5 mg/kg, route intravenous; settings: in vivo
[29] = Drug concentration in Sprague-Dawley rat liver at 5 mg/kg, iv after 6 hrs; format: ADME, organism-based; settings: read-out: Drug uptake
[30] = Clearance in Sprague-Dawley rat at 5 mg/kg, iv after 6 hrs; format: ADME, organism-based; settings: in vivo
[31] = Drug concentration in Sprague-Dawley rat liver at 15 mg/kg, po after 6 hrs; format: ADME, organism-based; settings: read-out: Drug uptake
[32] = AUC in Sprague-Dawley rat at 15 mg/kg, po after 6 hrs; format: ADME, organism-based; parameters: dose 15 mg/kg, time < 6 hr, route oral; settings: in vivo
[33] = Drug concentration in Sprague-Dawley rat liver at 5 mg/kg, iv after 24 hrs; format: ADME, organism-based; settings: read-out: Drug uptake
[34] = Drug concentration in Sprague-Dawley rat liver at 15 mg/kg, po after 24 hrs; format: ADME, organism-based; settings: read-out: Drug uptake

Which half-life [1] does the source give for `COc1cc2ccc3cc2cc1CCCCC(C)(C)COC(=O)N[C@@H](C(C)(C)C)C(=O)N1C[C@@]3(OC)C[C@H]1C(=O)N[C@]1(C(=O)NS(=O)(=O)C2CC2)C[C@H]1C1CC1` here?
Its half-life is 1.38 h.

With `C=Cc1cc2cc([C@]3(OC)C[C@@H](C(=O)N[C@]4(C(=O)NS(=O)(=O)C5CC5)C[C@H]4C=C)N(C(=O)[C@@H](NC(=O)OC(C)(C)C)C(C)(C)C)C3)ccc2cc1OC` as the molecule, how does the half-life [1] read?
The half-life was 0.6 h.

With `COc1cc2ccc3cc2cc1CCCCCCOC(=O)N[C@@H](C(C)(C)C)C(=O)N1C[C@@]3(OC)C[C@H]1C(=O)N[C@]1(C(=O)NS(=O)(=O)C2CC2)C[C@H]1C1CC1` as the molecule, how does the Activity [2] read?
Its Activity is 21%.

What about the Activity [3] of the same molecule?
Its Activity is 4%.

And the half-life [4]?
Its half-life is 5.3 h.

What about the Activity [5] of the same molecule?
Its Activity is 19%.

And the Activity [6]?
Its Activity is -5%.

What about the Activity [7] of the same molecule?
The Activity was 9%.

What about the Activity [8] of the same molecule?
The Activity was 10%.

And the Activity [9]?
The Activity was 18%.

And the Activity [10]?
Its Activity is 7%.

And the half-life [11]?
The half-life was 9.5 h.

And the Activity [12]?
The Activity was 18%.

What about the Activity [13] of the same molecule?
The Activity was 32%.

And the Activity [14]?
The Activity was 19%.

And the Activity [15]?
Its Activity is 2%.

What about the Activity [16] of the same molecule?
Its Activity is 10%.

What about the Activity [17] of the same molecule?
Its Activity is 43%.

What about the Activity [18] of the same molecule?
The Activity was -13%.

And the clearance [19]?
Its clearance is 2 mL/min/kg.

And the Activity [20]?
The Activity was 6%.

And the Activity [21]?
Its Activity is 7%.

And the half-life [1]?
The half-life was 1.65 h.

And the AUC at 24 h [22]?
The AUC at 24 h was 59 µM·h.

And the bioavailability [23]?
The bioavailability was 34%.

And the AUC at 24 h [24]?
Its AUC at 24 h is 57 µM·h.

What about the Activity [25] of the same molecule?
The Activity was -2%.

Which half-life [1] does the source give for `C=C[C@@H]1C[C@]1(NC(=O)[C@@H]1C[C@]2(OC)CN1C(=O)[C@H](C(C)(C)C)NC(=O)OCC(C)(C)CCCCc1cc3cc2ccc3cc1OC)C(=O)NS(=O)(=O)C1CC1` here?
The half-life was 0.967 h.

Which results are given for `C=C[C@@H]1C[C@]1(NC(=O)[C@@H]1C[C@@H](Oc2ncc(OC)c3ccc(Cl)cc23)CN1C(=O)[C@@H](NC(=O)OC(C)(C)C)C(C)(C)C)C(=O)NS(=O)(=O)C1CC1`?
clearance [26]: 38 mL/min/kg; bioavailability [27]: 12%

For `C=C[C@@H]1C[C@]1(NC(=O)[C@@H]1C[C@]2(OC)CN1C(=O)[C@H](C(C)(C)C)NC(=O)OCCCCCCc1cc3cc2ccc3cc1OC)C(=O)NS(=O)(=O)C1CC1`, which AUC at 6 h [28] is on record?
The AUC at 6 h was 90 µM·h.

And the concentration at 6 h [29]?
Its concentration at 6 h is 95 µM.

And the clearance [30]?
The clearance was 1.2 mL/min/kg.

And the half-life [1]?
The half-life was 0.417 h.

What about the concentration at 6 h [31] of the same molecule?
The concentration at 6 h was 108 µM.

And the AUC at 6 h [32]?
The AUC at 6 h was 27 µM·h.

With `COC(=O)N1CCCOc2cc3cc(ccc3cc2OC)[C@]2(OC)C[C@@H](C(=O)N[C@]3(C(=O)NS(=O)(=O)C4CC4)C[C@H]3C3CC3)N(C2)C(=O)[C@H](C(C)(C)C)NC(=O)OCC1` as the molecule, how does the half-life [1] read?
The half-life was greater than 2 h.

With `CO[C@@]12C[C@@H](C(=O)N[C@]3(C(=O)NS(=O)(=O)C4CC4)C[C@H]3C3CC3)N(C1)C(=O)[C@H](C(C)(C)C)NC(=O)OCCCCCOc1ccc3ccc2cc3c1` as the molecule, how does the concentration at 24 h [33] read?
Its concentration at 24 h is 45 µM.

What about the half-life [4] of the same molecule?
The half-life was 4.2 h.

And the half-life [11]?
The half-life was 4.6 h.

And the clearance [19]?
The clearance was 19 mL/min/kg.

And the concentration at 24 h [34]?
Its concentration at 24 h is 31 µM.

What about the half-life [1] of the same molecule?
The half-life was 0.65 h.

What about the AUC at 24 h [22] of the same molecule?
The AUC at 24 h was 3.6 µM·h.

What about the bioavailability [23] of the same molecule?
Its bioavailability is 16%.

What about the AUC at 24 h [24] of the same molecule?
Its AUC at 24 h is 7.2 µM·h.

Which half-life [1] does the source give for `C=C[C@@H]1C[C@]1(NC(=O)[C@@H]1C[C@]2(OC)CN1C(=O)[C@H](C(C)(C)C)NC(=O)OCCCCCCCCc1cc3cc2ccc3cc1OC)C(=O)NS(=O)(=O)C1CC1` here?
The half-life was 0.55 h.

What does the source list for `COc1cc2ccc3cc2cc1CCCC(C)(C)CCOC(=O)N[C@@H](C(C)(C)C)C(=O)N1C[C@@]3(OC)C[C@H]1C(=O)N[C@]1(C(=O)NS(=O)(=O)C2CC2)C[C@H]1C1CC1`?
Activity [2]: 14%; concentration at 24 h [33]: 100 µM; Activity [3]: 3%; half-life [4]: 3.9 h; Activity [6]: -5%; Activity [7]: 0%; Activity [8]: 0%; Activity [9]: 43%; Activity [10]: -4%; half-life [11]: 9.6 h; Activity [12]: 0%; Activity [13]: 31%; Activity [14]: -10%; Activity [15]: 4%; Activity [16]: 17%; Activity [17]: 31%; Activity [18]: -16%; clearance [19]: 3.5 mL/min/kg; Activity [20]: 16%; Activity [21]: 0%; concentration at 24 h [34]: 85 µM; half-life [1]: 1.27 h; AUC at 24 h [22]: 87 µM·h; bioavailability [23]: 100%; AUC at 24 h [24]: 29 µM·h; Activity [25]: 5%

For `C=C[C@@H]1C[C@]1(NC(=O)[C@@H]1C[C@@](OC)(c2ccc3cc(OC)ccc3c2)CN1C(=O)[C@@H](NC(=O)OC(C)(C)C)C(C)(C)C)C(=O)NS(=O)(=O)C1CC1`, which half-life [1] is on record?
The half-life was 0.35 h.

For `C=C[C@@H]1C[C@]1(NC(=O)[C@@H]1C[C@]2(OC)CN1C(=O)[C@H](C(C)(C)C)NC(=O)OCCCCCOc1ccc3ccc2cc3c1)C(=O)NS(=O)(=O)C1CC1`, which half-life [1] is on record?
The half-life was 0.367 h.

For `COc1cc2ccc3cc2cc1OCCCN(C1CC1)CCOC(=O)N[C@@H](C(C)(C)C)C(=O)N1C[C@@]3(OC)C[C@H]1C(=O)N[C@]1(C(=O)NS(=O)(=O)C2CC2)C[C@H]1C1CC1`, which half-life [4] is on record?
The half-life was 8 h.

And the half-life [11]?
The half-life was 20 h.

And the clearance [19]?
Its clearance is 3.5 mL/min/kg.

What about the half-life [1] of the same molecule?
The half-life was 0.717 h.

And the AUC at 24 h [22]?
Its AUC at 24 h is 18 µM·h.

And the bioavailability [23]?
The bioavailability was 18%.

What about the AUC at 24 h [24] of the same molecule?
The AUC at 24 h was 33 µM·h.
